In paper PMC9655037, “Alternation of Organ-Specific Exposure in LPS-Induced Pneumonia Mice after the Inhalation of Tetrandrine Is Governed by Metabolizing Enzyme Suppression and Lysosomal Trapping” (International Journal of Molecular Sciences, 2022):

How the values were obtained:
[1] = system: CYP3a; assay: CYP3a probe substrate turnover in microsomes from normal and LPS-treated mice; assay type: in vitro ADME, mouse; conditions: microsomes of LPS-treated vs normal mice, Figure 4A
[2] = system: HEK293-MOCK cells; assay: Uptake by MOCK (empty vector) HEK293 cells; conditions: positive control 20 μM, 10 min
Method: (§1) Expressing OATP1B1/OATP1B3 or MOCK HEK293 cells were utilized to evaluate whether TET is a substrate of these two SLC transporters. Cell culture was performed as mentioned above. Cells were seeded on 96-well plates at the density of 0.8 × 10^5 cells/well. The culture medium was replaced with a medium containing 5 mM sodium butyrate for 24 h before the transport study to enhance the expression of transporters. For the transport assay, the DMEM media were removed and the cells were washed with pre-warmed Krebs–Henseleit buffer twice (0.1 mL/well). The second washing buffer was kept in the wells and the plate was incubated at 37 °C for 5 min before the uptake assay was initiated. […] The incubation solution was removed and the cells were washed with ice-cold transportation buffer three times (0.1 mL/well). A total of 0.1 mL pure water was added to each well to lyse the cells by repeated freezing and thawing (−196 °C–37 °C, three times). The cell lysate was collected and stored at −40 °C for LC-MS/MS analysis and protein measurement.
(§2) In the uptake study of TET by OATP1B1 and OATP1B3 expressing the HEK293 cell line, the uptake clearance (U) of the substrate was calculated according to Equation (5), the transporter-mediated uptake ratio (UR) was calculated by dividing the uptake clearance from transporter-expressing cells to that from the mock cells according to Equation (6), and the inhibition ratio (IR) was calculated according to Equation (7), where p represents the protein content and T is the duration of the incubation time. (5) U=Clysate/p×T (6) UR=U/UMOCK (7) IR=(1−Uwith inhibitor−Umock with inhibitor/Uwithout inhibitor−Umock without inhibitor)×100

[3] = molecular target: T1, OATP1B3 (Homo sapiens, UniProt Q9NPD5); assay: Uptake by OATP1B3-expressing HEK293 cells; conditions: positive control 20 μM, 10 min
T1 sequence (Q9NPD5 1-702): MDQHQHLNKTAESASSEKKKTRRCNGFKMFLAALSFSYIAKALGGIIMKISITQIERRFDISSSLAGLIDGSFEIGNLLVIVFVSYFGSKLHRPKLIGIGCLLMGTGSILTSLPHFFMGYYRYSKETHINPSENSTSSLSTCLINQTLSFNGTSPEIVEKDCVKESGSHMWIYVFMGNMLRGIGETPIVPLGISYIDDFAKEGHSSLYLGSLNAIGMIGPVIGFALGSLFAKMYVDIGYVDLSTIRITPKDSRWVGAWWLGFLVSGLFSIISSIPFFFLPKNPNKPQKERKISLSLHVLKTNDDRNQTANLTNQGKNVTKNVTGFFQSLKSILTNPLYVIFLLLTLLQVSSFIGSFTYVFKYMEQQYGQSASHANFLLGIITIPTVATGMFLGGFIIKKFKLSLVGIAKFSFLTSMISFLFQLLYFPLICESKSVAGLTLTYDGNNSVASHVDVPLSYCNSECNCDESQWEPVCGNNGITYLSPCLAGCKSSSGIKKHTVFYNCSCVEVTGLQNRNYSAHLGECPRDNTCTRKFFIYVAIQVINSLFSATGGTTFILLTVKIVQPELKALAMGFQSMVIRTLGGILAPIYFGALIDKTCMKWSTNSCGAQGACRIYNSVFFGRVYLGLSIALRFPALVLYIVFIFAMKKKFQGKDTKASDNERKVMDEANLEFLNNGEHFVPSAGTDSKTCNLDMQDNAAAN
Method: as §1, §2

[4] = molecular target: MDR1 (P-gp) (Homo sapiens, UniProt P08183); assay: Bidirectional transport in MDR1-transfected LLC-PK1 cells
Method: (§3) MDR1 expressing LLC-PK1 cells or MOCK LLC-PK1 cells were utilized to identify whether P-gp is involved in the efflux transport across the membrane barrier. Cells were cultured as described above. Cells were seeded at a density of 2 × 10^4 in Millicell® 24-well cell culture plates with a 6.5 mm insert (0.4 µm polycarbonate membrane) from Corning (Kennebunk, ME, USA) 7 days before the experiments. On the day of the experiment, transepithelial electrical resistance (TEER) was measured to assess monolayer integrity. After washing the cells twice with HBSS, transport experiments in either the apical-to-basolateral direction (A-B) or the basolateral-to-apical direction (B-A) were conducted. […] After incubating the plates at 37 °C for 2 h, samples from the receiving and donor wells (50 μL) were taken simultaneously. All the samples were stored at −40 °C for LC-MS/MS analysis.
(§4) In the bidirectional transport study in LLC-PK1 cells, the following equations were used to calculate Papp values and the MDR1 efflux ratio.

[5] = Bidirectional transport in MOCK LLC-PK1 cells; conditions: pig
Method: as §3, §4

[6] = molecular target: MDR1 (Homo sapiens, UniProt P08183); assay: Bidirectional transport in MDR1-transfected LLC-PK1 cells; conditions: MDR1-transfected; 2 μM TET, 10 μM metoprolol, 10 μM atenolol, 2 μM digoxin; TAR 5 μM where stated; 2 h, 37 °C
Method: as §3, §4

Sequence of MDR1 (P-gp) (P08183 whole entry): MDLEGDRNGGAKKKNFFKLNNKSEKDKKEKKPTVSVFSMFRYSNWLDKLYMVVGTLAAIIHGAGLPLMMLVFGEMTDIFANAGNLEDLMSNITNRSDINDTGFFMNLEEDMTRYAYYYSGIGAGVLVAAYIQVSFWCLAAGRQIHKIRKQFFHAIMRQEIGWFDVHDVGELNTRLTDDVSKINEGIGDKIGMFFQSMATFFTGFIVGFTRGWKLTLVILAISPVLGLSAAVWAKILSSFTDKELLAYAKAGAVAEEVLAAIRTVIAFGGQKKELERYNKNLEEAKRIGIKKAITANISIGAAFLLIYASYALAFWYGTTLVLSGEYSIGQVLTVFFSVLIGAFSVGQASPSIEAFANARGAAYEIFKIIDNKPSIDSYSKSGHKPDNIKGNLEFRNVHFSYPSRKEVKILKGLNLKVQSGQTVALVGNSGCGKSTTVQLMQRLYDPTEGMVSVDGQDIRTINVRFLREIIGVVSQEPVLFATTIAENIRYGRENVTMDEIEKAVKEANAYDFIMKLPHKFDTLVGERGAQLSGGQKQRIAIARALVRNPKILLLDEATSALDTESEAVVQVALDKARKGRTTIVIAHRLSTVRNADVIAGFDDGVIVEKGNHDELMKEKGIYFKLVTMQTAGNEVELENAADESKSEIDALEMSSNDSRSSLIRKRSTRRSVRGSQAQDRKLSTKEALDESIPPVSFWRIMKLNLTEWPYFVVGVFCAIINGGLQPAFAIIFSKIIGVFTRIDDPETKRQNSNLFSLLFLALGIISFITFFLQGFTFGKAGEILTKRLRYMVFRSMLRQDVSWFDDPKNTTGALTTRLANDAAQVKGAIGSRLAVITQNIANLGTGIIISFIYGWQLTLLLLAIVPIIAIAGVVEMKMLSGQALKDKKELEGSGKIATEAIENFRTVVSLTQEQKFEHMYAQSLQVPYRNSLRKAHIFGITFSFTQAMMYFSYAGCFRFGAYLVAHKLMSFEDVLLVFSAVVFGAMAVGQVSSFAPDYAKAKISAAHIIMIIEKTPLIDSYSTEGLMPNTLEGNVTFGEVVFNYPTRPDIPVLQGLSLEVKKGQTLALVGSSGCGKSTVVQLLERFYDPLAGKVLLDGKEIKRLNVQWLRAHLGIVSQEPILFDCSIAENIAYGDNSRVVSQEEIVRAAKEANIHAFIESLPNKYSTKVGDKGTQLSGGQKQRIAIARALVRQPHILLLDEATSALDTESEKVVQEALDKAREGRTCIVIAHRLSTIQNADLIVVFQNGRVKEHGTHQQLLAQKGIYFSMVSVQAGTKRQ
Sequence of MDR1 (P08183 whole entry): as above

Cc1ncc2n1-c1ccc(Cl)cc1C(c1ccccc1F)=NC2 [midazolam]
1′-hydroxylation reaction lowered by LPS-induced pneumonia ([1]; at 24 h): ~ 2.55 fold

C[C@]12CC[C@H]3[C@@H](CCC4=CC(=O)CC[C@@]43C)[C@@H]1CC[C@@H]2O [testosterone]
change of 6-β-hydroxylation reaction under inflammation state (no obvious alternation) [1]: ~ 1.14 fold

C[C@]12CC[C@@H]3c4ccc(O)cc4CC[C@H]3[C@@H]1CC[C@@H]2O[C@@H]1O[C@H](C(=O)O)[C@@H](O)[C@H](O)[C@H]1O [Positive Control, 17β-estradiol-17β-D-glucuronide]
Uptake Clearance ([2]; MOCK (OATP1B1 set)): 2.4 ± 0.03 nM/min/mg Protein
Uptake Clearance ([2]; MOCK (OATP1B3 set)): 2.7 ± 0.07 nM/min/mg Protein
Uptake Clearance ([2]; MOCK+RIF (OATP1B1 set)): 2.63 ± 0.08 nM/min/mg Protein
Uptake Clearance ([2]; MOCK+RIF (OATP1B3 set)): 2.73 ± 0.08 nM/min/mg Protein
Uptake Clearance ([3]; OATP1B3+RIF): 3.66 ± 0.03 nM/min/mg Protein
Uptake Clearance ([3]; OATP1B3 cells): 30.0 ± 1.46 **^, ## nM/min/mg Protein

COCCc1ccc(OCC(O)CNC(C)C)cc1 (centres unmarked) [Metoprolol, metoprolol]
Papp A→B at 2 h [4]: 28.2 ± 0.65 ×10⁻⁶ cm/s
Papp B→A at 2 h ([4]; human, LLC-PK1): 28.3 ± 2.07 ×10⁻⁶ cm/s
efflux ratio at 2 h ([4]; human, LLC-PK1): 1
Papp A→B at 2 h [5]: 32.2 ± 2.8 ×10⁻⁶ cm/s
Papp B→A at 2 h [5]: 25 ± 0.3 ×10⁻⁶ cm/s
efflux ratio at 2 h [5]: 0.7

C[C@H]1O[C@@H](O[C@H]2[C@@H](O)C[C@H](O[C@H]3[C@@H](O)C[C@H](O[C@H]4CC[C@@]5(C)[C@H](CC[C@@H]6[C@@H]5C[C@@H](O)[C@]5(C)[C@@H](C7=CC(=O)OC7)CC[C@]65O)C4)O[C@@H]3C)O[C@@H]2C)C[C@H](O)[C@@H]1O [Digoxin, digoxin]
Papp A-B [6]: 0.98 ± 0.11 **^,##
Papp B-A [6]: 11.27 ± 0.77 **^,##
efflux ratio at 2 h ([4]; human, LLC-PK1): 11.5
Papp A→B at 2 h [5]: 2.25 ± 0.26 ×10⁻⁶ cm/s
Papp B→A at 2 h [5]: 1.74 ± 0.2 ×10⁻⁶ cm/s
efflux ratio at 2 h [5]: 0.77
